This passage reports inhibition, Ki and IC50 results from ChEMBL document CHEMBL3616396, “Integrated kinetic studies and computational analysis on naphthyl chalcones as mushroom tyrosinase inhibitors” (Bioorg Med Chem Lett, 2015).

Active and inactive are the calls of the source. The calls are words filed in the database; no cut-off is given here.

For assay [1], the target named is T1, Tyrosinase (Agaricus bisporus) (UniProt O42713).
T1 sequence (whole entry): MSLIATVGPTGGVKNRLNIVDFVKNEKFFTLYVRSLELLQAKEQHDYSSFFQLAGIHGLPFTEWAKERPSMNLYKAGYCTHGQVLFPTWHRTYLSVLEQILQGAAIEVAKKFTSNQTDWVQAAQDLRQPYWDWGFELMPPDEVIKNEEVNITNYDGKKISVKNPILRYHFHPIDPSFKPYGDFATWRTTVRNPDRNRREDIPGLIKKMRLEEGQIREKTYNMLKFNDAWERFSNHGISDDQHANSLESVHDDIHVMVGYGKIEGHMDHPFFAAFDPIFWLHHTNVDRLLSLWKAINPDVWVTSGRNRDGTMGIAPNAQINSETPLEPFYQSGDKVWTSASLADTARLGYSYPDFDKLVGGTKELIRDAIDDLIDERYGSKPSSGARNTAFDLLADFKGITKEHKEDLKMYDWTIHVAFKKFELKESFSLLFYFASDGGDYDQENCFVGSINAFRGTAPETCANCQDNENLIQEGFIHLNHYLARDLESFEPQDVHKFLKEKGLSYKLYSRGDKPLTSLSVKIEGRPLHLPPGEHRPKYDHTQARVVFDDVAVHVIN
Description: Competitive inhibition of mushroom tyrosinase assessed as reduction in L-DOPA oxidase activity at 0.15 mM to 0.6 mM using L-DOPA substrate by Lineweaver-Burk plot.

The target in assay [2] is T2, Tyrosinase (Agaricus bisporus, UniProt O42713).
T2 sequence (O42713 whole entry): T1 sequence (whole entry)
Description: Inhibition of mushroom tyrosinase assessed as reduction in L-DOPA oxidase activity using L-DOPA substrate at 5 uM by Dixon plot

The target of assay [3] is T2, Tyrosinase. The source holds these as a separate data set.
Description: Inhibition of mushroom tyrosinase assessed as reduction in L-DOPA oxidase activity using L-DOPA substrate

In the case of `COc1cc(/C=C/C(=N\O)c2cc3ccccc3cc2O)cc(OC)c1`, the inhibition entry in assay [1] was “Active”. Further, in assay [2], the affinity, expressed as Ki, was 28.6 µM. In assay [3], this compound gave an IC50 of 52.9 µM.
The like results for `O/N=C(\C=C\c1cccnc1)c1cc2ccccc2cc1O` were, in that order, “Active”, 6.46 µM and 12.2 µM.
In the same order, the values of `COc1ccc(/C=C/C(=N\O)c2cc3ccccc3cc2O)cc1OC` are “Active”, 22.9 µM and 42.3 µM.
In the same order, the values of `COc1ccc(OC)c(/C=C/C(=N\O)c2cc3ccccc3cc2O)c1` are “Active”, 9.4 µM and 21.9 µM.
For the compound `COc1ccc(/C=C/C(=N\O)c2cc3ccccc3cc2O)c(OC)c1`, the inhibition entry in assay [1] is “Active”. In addition, the Ki in assay [2] stood at 10.6 µM. The compound further came in with an IC50 in assay [3] of 23 µM.
In the same order, the values of `O/N=C(\C=C\c1ccccn1)c1cc2ccccc2cc1O` are “Active”, 11.1 µM and 20.2 µM.
The like results for `O/N=C(\C=C\c1ccncc1)c1cc2ccccc2cc1O` were, in that order, “Active”, 7.82 µM and 19.5 µM.
